Assay results reported in paper PMC10952195, “A single coiled‐coil domain mutation in hIKCa channel subunits disrupts preferential formation of heteromeric hSK1:hIKCa channels” (The European Journal of Neuroscience, 2023).
Entries after “also recorded” stand apart in the source; their conditions may differ. Like-named read-outs stand apart in the source and are kept apart here. Ends that are not written are not given here.

Legend:
[1] = target: T1, hIKCa channel (Homo sapiens, UniProt O15554); assay: Ca2+ activation of ramp currents, inside-out macropatches, homomeric hIKCa; assay type: cell-based
T1 construct: expressed in transfected cells; host or cells: tsA201 cells
Method: (§1) TsA201 cells were maintained in culture at 37°C and 5% CO2, being grown in culture flasks with Dulbecco's Modified Eagle Medium (DMEM) supplemented with foetal bovine serum (10%) and penicillin and streptomycin (1%). Cells were passaged at ~80% confluence. The cDNA of KCa channel subunits and one encoding expression of enhanced green fluorescent protein (eGFP) (using pcDNA3.1 or equivalent vectors) were transfected into tsA201 cells using polyethylenimine (PEI) (Merck/Sigma, UK) at a concentration of 0.2 mg/mL (Higham et al., [2019]). Cells were used 48 h after transfection. All mutations were carried out using QuikChange II XL (Stratagene).
(§2) Sensitivity of expressed channels to Ca^2+ was assessed using inside‐out macropatches excised from eGFP‐positive cells, using electrodes of resistance 1–3 MΩ. A range of free Ca^2+ concentrations was used, from 30 nM to 3 μM in half log10 increments. We used external solution to bath inside‐out patches, with the free Ca^2+ concentration calculated to maintain free Mg^2+ at 1 mM. Solutions were designed using REACT, with pH adjusted to 7.4 and osmolarity between 280 and 310 mOsm.

[2] = test system: SK channels native to CA1 hippocampal neurons; set-up: method as in Hirschberg et al., 1999; conditions: ref Hirschberg et al., 1999; read-out: EC50 for activation of SK channels native to CA1 hippocampal neurons; cited from earlier work
[3] = test system: hSK1 channel; assay: Ca2+ activation of ramp currents, inside-out macropatches, homomeric hSK1; assay type: cell-based, human
Method: as §1, §2

[4] = target: T2, heteromeric hSK1:hIKCa channel (Homo sapiens, UniProt O15554+Q92952); assay: Ca2+ activation of ramp currents, inside-out macropatches, heteromeric hSK1:hIKCa; assay type: cell-based
T2 construct: expressed in transfected cells; host or cells: tsA201 cells
Method: as §1, §2

[5] = test system: hSK1[S348T + A371V] channel; assay: Outside-out patch current inhibition, homomeric pore mutant hSK1[S348T + A371V]; assay type: cell-based, human
Method: as §1
(§3) Outside‐out patches were excised from eGFP‐positive cells, pulled from thick‐walled (1.5 mm OD × 0.86 mm ID) borosilicate glass capillaries (Harvard Apparatus, UK), fire‐polished and filled with internal solution containing in mM: 97 K aspartate, 20 KCl, 1.5 Na2ATP, 10 EGTA, 9.65 CaCl2 (1 μM free Ca^2+), 10 HEPES Na, 2.5 MgCl2 (pH 7.4 and osmolarity between 280 and 310 mOsm). […] Free Ca^2+ concentrations were calculated using REACT (University of Strathclyde). […] Current was measured using an Axopatch 200A amplifier, low‐pass filtered (cut off 1 kHz, Bessel, Frequency Devices) and acquired at 10 kHz (Pulse, HEKA). […]

[6] = target: T3, hIKCa (WT) channel (Homo sapiens, UniProt O15554); assay: Outside-out patch current inhibition, homomeric wildtype hIKCa expressed in tsA201 cells; assay type: cell-based
T3 construct: expressed in transfected cells; host or cells: tsA201 cells
Method: as §1, §3

[7] = test system: slow AHP of hippocampal neurons; conditions: ref King et al., 2015, Shah & Haylett, 2000, Church et al., 2019, Higham et al.; cited from earlier work
[8] = target: T2, heteromeric hSK1:hIKCa channel; conditions: ref Higham et al., 2019, Church et al.; cited from earlier work
[9] = target: hSK1[S348T + A371V]:hIKCa heteromeric channel (Homo sapiens, UniProt O15554+Q92952, A355V/S330T); assay: Outside-out patch current inhibition, heteromeric hSK1[S348T + A371V]:hIKCa; assay type: cell-based
Method: as §1, §3

[10] = target: T4, hIKCa[H389E] channel (Homo sapiens, UniProt O15554, H389E); assay: Outside-out patch current inhibition, homomeric hIKCa[H389E]; assay type: cell-based; conditions: TRAM-34 10 μM
T4 construct: expressed in transfected cells; host or cells: tsA201 cells
Method: as §1, §3

[11] = test system: hSK1 channel; set-up: method as in Higham et al., 2019; conditions: ref Higham et al., 2019; cited from earlier work
[12] = target: hSK1:hIKCa[H389E] channels (Homo sapiens, UniProt O15554+Q92952, H389E); assay: Outside-out patch current inhibition, cells co-expressing hSK1 and hIKCa[H389E]; assay type: cell-based
Method: as §1
(§4) Outside‐out patches were excised from eGFP‐positive cells, pulled from thick‐walled (1.5 mm OD × 0.86 mm ID) borosilicate glass capillaries (Harvard Apparatus, UK), fire‐polished and filled with internal solution containing in mM: 97 K aspartate, 20 KCl, 1.5 Na2ATP, 10 EGTA, 9.65 CaCl2 (1 μM free Ca^2+), 10 HEPES Na, 2.5 MgCl2 (pH 7.4 and osmolarity between 280 and 310 mOsm). Cells were bathed in, and patches excised into, an external solution containing in mM: 97 K Aspartate, 30 KCl, 10 HEPES Na^+, 6.19 CaCl2 (1 μM free Ca^2+), 1.44 MgCl2 (pH 7.4, 280–310 mOsm). Free Ca^2+ concentrations were calculated using REACT (University of Strathclyde). […] Current was measured using an Axopatch 200A amplifier, low‐pass filtered (cut off 1 kHz, Bessel, Frequency Devices) and acquired at 10 kHz (Pulse, HEKA). All recordings were made at room temperature. Apamin (Sigma‐Aldrich, UK), 6,12,19,20,25,26‐hexahydro‐5,27:13,18:21,24‐trietheno‐11,7‐metheno‐7H‐dibenzo [b,n] […] UCL1684 was dissolved at a stock concentration of 100 μM in DMSO, and aliquots were stored at −20°C. Finally, apamin was dissolved in distilled water at a stock concentration of 100 μM, and aliquots were stored at −20°C. All compounds were defrosted on the day of recording, with aliquots only thawed once, and desired concentrations were prepared by dilution in external solution.
(§5) Biphasic concentration–inhibition relationships were fitted using the following equation: I/Icontrol=Amin+Afrac−Amin/1+10^LogIC50,a−X×nH,a +Amax−Amin/1+10^LogIC50,b−X×nH,b where A frac is current amplitude at the maximum of the high‐sensitivity component I frac /I cont , IC 50,a is the IC50 of the high‐sensitivity component, n H,a is the Hill coefficient of the high‐sensitivity component, IC 50,b is the IC50 of the low‐sensitivity component, and n H,b is the Hill coefficient of the low‐sensitivity component. […] Statistical significance was determined using appropriate tests that are stated in the figure legend.

[13] = target: T2, heteromeric hSK1:hIKCa channel; assay: Outside-out patch current inhibition, heteromeric wildtype hSK1:hIKCa expressed in tsA201 cells; assay type: cell-based; conditions: for extent of inhibition of heteromeric hSK1:hIKCa current: concentration-inhibition relationship
Method: as §1, §4, §5

[14] = test system: hSK1 channel; assay: Outside-out patch current inhibition, homomeric hSK1; assay type: cell-based, human
Method: as §1
Outside‐out patches were excised from eGFP‐positive cells, pulled from thick‐walled (1.5 mm OD × 0.86 mm ID) borosilicate glass capillaries (Harvard Apparatus, UK), fire‐polished and filled with internal solution containing in mM: 97 K aspartate, 20 KCl, 1.5 Na2ATP, 10 EGTA, 9.65 CaCl2 (1 μM free Ca^2+), 10 HEPES Na, 2.5 MgCl2 (pH 7.4 and osmolarity between 280 and 310 mOsm). Cells were bathed in, and patches excised into, an external solution containing in mM: 97 K Aspartate, 30 KCl, 10 HEPES Na^+, 6.19 CaCl2 (1 μM free Ca^2+), 1.44 MgCl2 (pH 7.4, 280–310 mOsm). Free Ca^2+ concentrations were calculated using REACT (University of Strathclyde). […] Current was measured using an Axopatch 200A amplifier, low‐pass filtered (cut off 1 kHz, Bessel, Frequency Devices) and acquired at 10 kHz (Pulse, HEKA). […]
as §5

[15] = test system: hSK1:hIKCa[H389E] channels; assay: Outside-out patch current inhibition, cells co-expressing hSK1 and hIKCa[H389E]; assay type: cell-based, human; conditions: biphasic fit, hSK1:hIKCa[H389E]-mediated current
Method: as §1, §4, §5

[16] = concentration-inhibition relationship

T1 sequence (O15554 whole entry): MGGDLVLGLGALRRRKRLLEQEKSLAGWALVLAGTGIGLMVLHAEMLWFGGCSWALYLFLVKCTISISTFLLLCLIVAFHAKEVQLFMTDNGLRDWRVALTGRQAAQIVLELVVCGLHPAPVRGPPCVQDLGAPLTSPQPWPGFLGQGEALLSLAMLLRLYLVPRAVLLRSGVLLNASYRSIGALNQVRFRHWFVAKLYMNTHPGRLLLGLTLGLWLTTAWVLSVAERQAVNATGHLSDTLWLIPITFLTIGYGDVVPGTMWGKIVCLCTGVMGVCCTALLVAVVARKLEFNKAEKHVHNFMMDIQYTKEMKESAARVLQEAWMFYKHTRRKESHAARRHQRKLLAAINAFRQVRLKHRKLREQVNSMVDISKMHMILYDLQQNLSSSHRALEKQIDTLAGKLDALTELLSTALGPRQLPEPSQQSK
T2 sequence (O15554 whole entry): as above
T2 sequence (Q92952 other isoform, or with tags, fused parts or gaps): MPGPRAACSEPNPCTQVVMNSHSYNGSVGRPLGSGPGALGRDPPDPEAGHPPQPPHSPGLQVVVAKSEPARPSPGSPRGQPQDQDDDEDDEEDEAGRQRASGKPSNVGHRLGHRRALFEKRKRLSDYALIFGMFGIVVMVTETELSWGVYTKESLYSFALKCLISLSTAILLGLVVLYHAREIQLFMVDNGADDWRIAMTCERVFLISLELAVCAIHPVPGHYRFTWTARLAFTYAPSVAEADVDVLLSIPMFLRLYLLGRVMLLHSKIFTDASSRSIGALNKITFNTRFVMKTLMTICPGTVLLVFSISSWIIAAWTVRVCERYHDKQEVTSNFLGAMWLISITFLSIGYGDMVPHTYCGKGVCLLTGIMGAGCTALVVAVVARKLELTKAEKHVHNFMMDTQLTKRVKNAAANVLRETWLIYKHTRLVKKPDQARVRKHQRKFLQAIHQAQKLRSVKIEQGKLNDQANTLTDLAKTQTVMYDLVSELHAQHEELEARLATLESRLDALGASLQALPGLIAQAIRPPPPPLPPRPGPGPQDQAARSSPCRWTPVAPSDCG
Chain of hSK1:hIKCa[H389E] channels (Homo sapiens, UniProt O15554+Q92952, H389E) (O15554 whole entry H389E): as the sequence (O15554 whole entry) above, with H389E counted along it
Chain of hSK1:hIKCa[H389E] channels (Homo sapiens, UniProt O15554+Q92952, H389E) (Q92952 whole entry): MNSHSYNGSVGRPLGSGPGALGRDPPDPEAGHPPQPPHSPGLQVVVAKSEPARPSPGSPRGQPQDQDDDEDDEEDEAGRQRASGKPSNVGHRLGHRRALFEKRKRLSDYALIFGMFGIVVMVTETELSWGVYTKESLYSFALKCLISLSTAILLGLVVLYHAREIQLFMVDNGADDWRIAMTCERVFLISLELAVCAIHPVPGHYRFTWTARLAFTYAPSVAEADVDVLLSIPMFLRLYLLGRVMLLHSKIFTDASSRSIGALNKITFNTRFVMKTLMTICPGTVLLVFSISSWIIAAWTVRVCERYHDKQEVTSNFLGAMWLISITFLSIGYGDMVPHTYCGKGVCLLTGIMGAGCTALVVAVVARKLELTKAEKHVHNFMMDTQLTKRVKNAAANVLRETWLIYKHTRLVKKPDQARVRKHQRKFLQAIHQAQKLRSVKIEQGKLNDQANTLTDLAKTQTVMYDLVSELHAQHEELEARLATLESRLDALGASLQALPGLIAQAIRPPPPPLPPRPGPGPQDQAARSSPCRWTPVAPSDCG
T3 sequence (O15554 whole entry): as the sequence (O15554 whole entry) above
Chain of hSK1[S348T + A371V]:hIKCa heteromeric channel (O15554 whole entry): as above
Chain of hSK1[S348T + A371V]:hIKCa heteromeric channel (Q92952 whole entry S330T/A355V): as the sequence (Q92952 whole entry) above, with S330T, A355V counted along it
T4 sequence (O15554 whole entry H389E): as the sequence (O15554 whole entry) above, with H389E counted along it

Molecule: [Ca+2] [Ca^2+]
- activity of homomeric hIKCa channels at 100 nM Ca2+ ([1]; 100 nM Ca2+): 10%
- nH for activation of homomeric hIKCa-mediated ramp currents ([1]; inside-out patches): 4.10 ± 0.57
- EC50 ([1]; inside-out patches, tsA201 cells, read-out: EC50 for activation of homomeric hIKCa-mediated ramp currents): 409 ± 15.3 nM
- EC50 [2]: 560 nM
- activity of homomeric hSK1 channels at 100 nM Ca2+ ([3]; 100 nM Ca2+): inactive
- nH for activation of homomeric hSK1-mediated current ([3]; inside-out patches): 5.26 ± 0.82
- EC50 ([3]; inside-out patches, tsA201 cells, read-out: EC50 for activation of homomeric hSK1-mediated current): 531 ± 78 nM
- activity of heteromeric hSK1:hIKCa channels at 100 nM Ca2+ ([4]; 100 nM Ca2+): inactive
- nH for activation of heteromeric hSK1:hIKCa-mediated ramp currents ([4]; inside-out patches): 3.93 ± 0.29
- EC50 ([4]; inside-out patches, tsA201 cells, read-out: EC50 for activation of heteromeric hSK1:hIKCa-mediated ramp currents): 613 ± 27.6 nM

Molecule: Clc1ccccc1C(c1ccccc1)(c1ccccc1)n1cccn1 [TRAM‐34, 1‐[(2‐chlorophenyl)diphenylmethyl]‐1H‐pyrazole]
- extent of block of hSK1[S348T + A371V]-mediated current ([5]; TRAM-34 10 μM): fully blocked
- extent of inhibition of homomeric hIKCa-mediated current [6, 16]: fully inhibited
- inhibition at 10 µM ([6]; tsA201, TRAM-34 10 μM, read-out: inhibition of hIKCa (WT)-mediated current): 87 ± 2.6%
- sensitivity of the slow AHP [7]: sensitive
- sensitivity of hSK1:hIKCa channel current [8]: sensitive
- extent of inhibition of hSK1[S348T + A371V]:hIKCa current ([9]; TRAM-34 10 μM): fully sensitive
- block of hIKCa[H389E]-mediated current [10]: 83.7 ± 2.0%
- effect on wildtype hSK1-mediated current [11]: insensitive; also recorded: does not affect
- extent of inhibition of hSK1:hIKCa[H389E] current [12, 16]: only partially inhibited
- extent of inhibition of heteromeric hSK1:hIKCa current [13]: sub‐maximal inhibition

Molecule: [Br-].[Br-].c1cc2cc(c1)C[n+]1ccc(c3ccccc31)NCc1ccc(cc1)CNc1cc[n+](c3ccccc13)C2 [UCL1684, 6,12,19,20,25,26‐hexahydro‐5,27:13,18:21,24‐trietheno‐11,7‐metheno‐7H‐dibenzo [b,n] [1,5,12,16]tetraazacyclotricosine‐5,13‐diium dibromide]
- extent of inhibition of homomeric hSK1-mediated current [14, 16]: maximally inhibited
- difference in sensitivity between homomeric hSK1-mediated and heteromeric hSK1:hIKCa-mediated current ([14]; hSK1 versus hSK1:hIKCa): < 200 fold
- IC50 ([14]; outside-out patches, tsA201 cells, maximal inhibition, read-out: IC50 for inhibition of homomeric hSK1-mediated current): 0.783 ± 0.38 nM
- nH(a) of the high-sensitivity component [15]: 0.910 ± 0.02
- nH(b) of the low-sensitivity component [15]: 0.930 ± 0.1
- IC50 ([15]; read-out: IC50(a) of the high-sensitivity component): 0.511 ± 0.0002 nM
- IC50 ([15]; read-out: IC50(b) of the low-sensitivity component): 301 ± 84.6 nM
- maximal inhibition of hSK1:hIKCa[H389E]-mediated current ([12]; two component concentration-inhibition curve): 50.9 ± 12.5%
- extent of inhibition of heteromeric hSK1:hIKCa current [13]: sub‐maximally inhibited
- IC50 ([13]; outside-out patches, tsA201 cells, 1 μM free Ca2+, sub-maximal inhibition, read-out: IC50 for inhibition of heteromeric hSK1:hIKCa (WT) current): 236 ± 82 nM

Molecule: apamin: SK channel inhibitor; negative allosteric inhibitor for SK1–3 channels (CNCKAPETALCARRCQQH; not fully specified (C-terminus, bridges); cysteine pairing not given here; UniProt P01500 28-45, looked up)
- extent of inhibition of hSK1[S348T + A371V] current ([5]; apamin 100 nM): completely inhibited
- sensitivity of the slow AHP [7]: insensitive
- sensitivity of hSK1:hIKCa channel current [8]: insensitive
- sensitivity of hSK1[S348T + A371V]:hIKCa current ([9]; apamin 100 nM): insensitive
- reduction of current amplitude, cells co-expressing hSK1 and hIKCa[H389E] ([12]; apamin 100 nM): 17.3 ± 1.8%
- effect on current from cells co-expressing wildtype hSK1 and hIKCa ([13]; apamin 100 nM): had no effect

Molecule: charybdotoxin
- sensitivity of the slow AHP [7]: sensitive
- sensitivity of hSK1:hIKCa channel current [8]: sensitive
